Results: patent US4062950A, “Amino sugar derivatives” (priority 1973, dated 1977)
“And” between values parts separate entries of the source, which are not always exact repeats. Equal values may be shown once.

Assays:
starch digestion = experiment: In vivo starch digestion inhibition (starch feeding test) in the fasting rat
pancreas-α-amylase = biological target: T1, pancreas-α-amylase (Sus scrofa, UniProt P00690); experiment: In vitro amylase test; format: biochemical
T1 sequence (P00690 16-511): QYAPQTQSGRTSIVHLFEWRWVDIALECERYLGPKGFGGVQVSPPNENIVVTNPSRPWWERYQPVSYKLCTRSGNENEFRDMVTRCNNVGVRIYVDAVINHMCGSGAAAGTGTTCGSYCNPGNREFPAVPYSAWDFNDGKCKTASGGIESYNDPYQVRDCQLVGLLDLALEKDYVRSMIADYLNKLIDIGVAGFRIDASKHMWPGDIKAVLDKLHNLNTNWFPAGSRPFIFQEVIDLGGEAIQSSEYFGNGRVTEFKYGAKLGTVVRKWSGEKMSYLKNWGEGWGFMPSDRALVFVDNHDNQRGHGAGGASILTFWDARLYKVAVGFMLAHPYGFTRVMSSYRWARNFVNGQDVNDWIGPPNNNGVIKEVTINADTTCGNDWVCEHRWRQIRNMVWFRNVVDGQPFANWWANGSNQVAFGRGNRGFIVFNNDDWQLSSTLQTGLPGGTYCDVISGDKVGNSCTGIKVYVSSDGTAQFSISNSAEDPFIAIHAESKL
Procedure: One amylase inhibitor unit (1 AIU) is defined as the amount of inhibitor which inhibits two amylase units to the extent of 50%. One amylase unit (AU) is the amount of enzyme which under the test conditions specified below splits 1 μequivalent of glucoside bonds in the starch per minute. The μequivalents of split bonds are determined colorimetrically as μequivalents of reducing sugars formed, using dinitrosalicylic acid, and are quoted as μequivalents of maltose equivalents, using a maltose calibration curve. To carry out the test, 0.1 ml of amylase solution (20-22 AU/ml) are mixed with 0-10 μg of inhibitor or 0-20 μl of the solution to be tested in 0.4 ml of 0.02 M sodium glycerophosphate buffer/0.001 M CaCl2, pH 6.9, and the mixture is equilibrated for 10-20 minutes in a water bath at 35° C. The mixture is then incubated for 5 minutes at 35° C with 0.5 ml of a 1% strength starch solution which has been pre-warmed to 35° C (soluble starch No. 1,252 from Merck, Darmstadt), and thereafter 1 ml of dinitrosalicyclic acid reagent (according to P. bernfeld in Colowick-Kaplan, Meth. Enzymol., Volume l, page 149) is added. To develop the color, the batch is heated for 5 minutes on a boiling water bath and then cooled, and 10 ml of distilled water are added. The extinction at 540 nm is measured against a correspondingly made-up blank without amylase. […] The percentage inhibition is plotted as a function of the quotient [formula]

saccharase [1] = biological target: T2, saccharase (Sus scrofa, UniProt P56729); experiment: In vitro saccharase test; format: biochemical, pig
T2 construct: sucrase subunit of the sucrase-isomaltase complex hydrolyses sucrose
Procedure: One saccharase inhibitor unit (SIU) is defined as the amount of inhibitor which inhibits two saccharase units to the extent of 50%. One saccharase unit (SU) is the amount of enzyme which under the test conditions specified splits 1 μmol of sucrose to glucose and fructose per minute. The μmols of glucose formed are determined quantitatively by means of the glucose oxidase reaction under conditions under which a further splitting of the sucrose by the saccharase no longer takes place. To carry out the test, 0.05 ml of solubilized saccharase [from the mucous membrane of the small intestine of the pig, according to B. Borgastrom, A. Dahlquist, Acta Chem. Scand. 12, (1958), page 1,997], diluted with 0.1 M sodium maleate buffer of pH 6.0 to a SU content adjusted to 0.12 SU is mixed with 0-20 μg of inhibitor or 0-20 μl of the solution to be tested and brought up to 0.1 ml with 0.1 M sodium maleate buffer of pH 6.0. The mixture is equilibrated for 10 minutes at 35° C and 0.1 ml of an 0.05 M sucrose solution in 0.1 M sodium maleate buffer of pH 6.0, pre-warmed to 35° C, is then added. The mixture is incubated for 20 minutes at 35° C, the saccharase reaction is stopped by addition of 1 ml of glucose oxidase reagent, and the incubation is continued for a further 30 minutes at 35° C. (The glucose oxidase reagent is prepared by dissolving 2 mg of glucose oxidase, Boehringer, No. 15,423, in 100 ml of 0.565 M tris-HCl buffer of pH 7.0 and subsequently adding 1 ml of detergent solution (2 g of Triton X 100 + 8 g of 95% strength and analytical grade ethanol), 1 ml of dianisidine solution (260 mg of o-dianisidine. 2HCl in 20 ml of H2 O) and 0.5 ml of 0.1% strength aqueous peroxidase solution, Boehringer, No. 15,302). Thereafter, 1 ml of 50% strength H2 SO4 is added and a measurement carried out at 545 nm against a corresponding blank. To evaluate the results, the percentage inhibition of the saccharase employed is calculated and converted to SIU/g of SIU/liter from the 50% inhibition point, using a glucose calibration curve.

saccharase [2] = biological target: T3, saccharase (Rattus norvegicus, UniProt P23739); experiment: In vivo saccharase inhibition (sucrose overfeeding test) in the fasting rat
T3 construct: from tissue; host or cells: intestine of the living rat (endogenous enzyme)
Procedure: The produce an alimentary hyperglycemia and hyperinsulinaemia, groups of 6 fasting rats are given (a) 2.5 g of sucrose, (b) 2.5 g of maltose or (c) 1 g of boiled starch orally, in aqueous solution or suspension. Six other rats are given the same carbohydrates in the same amount and a glycoside hydrolase inhibitor in the amount indicated. In addition, six other rats are given an appropriate volume of saline. The blood glucose and the serum insulin are then measured at short intervals of time, in the blood from the retro-orbital venous plexus. Blood glucose determinations are carried out in the Auto-Analyser device (Technicon), according to Hoffmann: J. biol.

T3 sequence (P23739 1014-1841 limits assumed): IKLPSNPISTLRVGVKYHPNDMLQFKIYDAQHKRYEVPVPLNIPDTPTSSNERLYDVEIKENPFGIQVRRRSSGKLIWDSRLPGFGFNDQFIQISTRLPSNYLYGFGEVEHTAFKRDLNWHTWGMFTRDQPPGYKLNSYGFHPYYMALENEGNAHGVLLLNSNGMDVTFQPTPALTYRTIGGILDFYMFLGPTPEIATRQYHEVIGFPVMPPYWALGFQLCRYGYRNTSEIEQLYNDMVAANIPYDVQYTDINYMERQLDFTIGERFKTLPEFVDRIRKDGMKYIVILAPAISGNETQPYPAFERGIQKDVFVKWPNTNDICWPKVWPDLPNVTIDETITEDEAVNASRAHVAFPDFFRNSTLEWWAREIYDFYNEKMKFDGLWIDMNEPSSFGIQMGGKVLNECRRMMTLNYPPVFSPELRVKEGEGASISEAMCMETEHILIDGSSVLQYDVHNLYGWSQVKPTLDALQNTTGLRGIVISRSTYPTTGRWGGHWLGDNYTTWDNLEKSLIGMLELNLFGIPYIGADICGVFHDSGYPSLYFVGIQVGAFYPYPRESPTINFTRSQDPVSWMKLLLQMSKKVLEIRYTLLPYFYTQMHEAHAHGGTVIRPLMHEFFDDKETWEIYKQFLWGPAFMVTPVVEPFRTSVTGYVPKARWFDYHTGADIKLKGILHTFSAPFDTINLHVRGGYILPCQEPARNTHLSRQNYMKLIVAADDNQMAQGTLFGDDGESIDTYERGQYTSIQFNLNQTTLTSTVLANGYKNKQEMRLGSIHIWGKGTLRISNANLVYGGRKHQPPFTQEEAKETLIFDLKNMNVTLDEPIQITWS
T3 sequence (P23739 2-1013 partner limits assumed): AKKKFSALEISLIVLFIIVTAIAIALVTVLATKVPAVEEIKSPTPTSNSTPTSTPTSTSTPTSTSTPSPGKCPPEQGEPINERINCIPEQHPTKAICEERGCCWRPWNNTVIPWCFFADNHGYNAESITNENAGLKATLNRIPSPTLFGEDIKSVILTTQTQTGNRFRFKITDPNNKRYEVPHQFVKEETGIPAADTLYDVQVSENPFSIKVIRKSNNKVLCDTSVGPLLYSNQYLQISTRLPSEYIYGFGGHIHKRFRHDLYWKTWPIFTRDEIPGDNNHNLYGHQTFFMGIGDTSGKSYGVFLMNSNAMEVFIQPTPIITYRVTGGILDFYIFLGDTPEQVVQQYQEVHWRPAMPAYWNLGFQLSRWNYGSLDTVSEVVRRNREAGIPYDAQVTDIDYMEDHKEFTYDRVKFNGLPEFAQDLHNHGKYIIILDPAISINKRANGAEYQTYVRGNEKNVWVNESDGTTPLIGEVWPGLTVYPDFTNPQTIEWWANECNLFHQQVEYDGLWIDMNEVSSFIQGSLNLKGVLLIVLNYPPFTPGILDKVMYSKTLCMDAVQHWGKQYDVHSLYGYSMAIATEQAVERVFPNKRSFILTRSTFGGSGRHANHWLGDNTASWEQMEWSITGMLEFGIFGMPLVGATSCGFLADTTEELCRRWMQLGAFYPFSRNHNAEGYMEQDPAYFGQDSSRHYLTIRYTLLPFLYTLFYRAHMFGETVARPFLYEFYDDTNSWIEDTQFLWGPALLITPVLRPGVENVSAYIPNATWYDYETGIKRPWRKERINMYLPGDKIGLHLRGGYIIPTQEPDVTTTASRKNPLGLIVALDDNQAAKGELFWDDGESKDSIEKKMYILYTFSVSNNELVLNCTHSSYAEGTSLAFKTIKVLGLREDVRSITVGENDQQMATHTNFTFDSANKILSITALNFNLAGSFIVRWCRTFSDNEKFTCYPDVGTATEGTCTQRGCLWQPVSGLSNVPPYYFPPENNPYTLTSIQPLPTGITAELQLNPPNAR
T2 sequence (P56729 with tags, fused parts or gaps): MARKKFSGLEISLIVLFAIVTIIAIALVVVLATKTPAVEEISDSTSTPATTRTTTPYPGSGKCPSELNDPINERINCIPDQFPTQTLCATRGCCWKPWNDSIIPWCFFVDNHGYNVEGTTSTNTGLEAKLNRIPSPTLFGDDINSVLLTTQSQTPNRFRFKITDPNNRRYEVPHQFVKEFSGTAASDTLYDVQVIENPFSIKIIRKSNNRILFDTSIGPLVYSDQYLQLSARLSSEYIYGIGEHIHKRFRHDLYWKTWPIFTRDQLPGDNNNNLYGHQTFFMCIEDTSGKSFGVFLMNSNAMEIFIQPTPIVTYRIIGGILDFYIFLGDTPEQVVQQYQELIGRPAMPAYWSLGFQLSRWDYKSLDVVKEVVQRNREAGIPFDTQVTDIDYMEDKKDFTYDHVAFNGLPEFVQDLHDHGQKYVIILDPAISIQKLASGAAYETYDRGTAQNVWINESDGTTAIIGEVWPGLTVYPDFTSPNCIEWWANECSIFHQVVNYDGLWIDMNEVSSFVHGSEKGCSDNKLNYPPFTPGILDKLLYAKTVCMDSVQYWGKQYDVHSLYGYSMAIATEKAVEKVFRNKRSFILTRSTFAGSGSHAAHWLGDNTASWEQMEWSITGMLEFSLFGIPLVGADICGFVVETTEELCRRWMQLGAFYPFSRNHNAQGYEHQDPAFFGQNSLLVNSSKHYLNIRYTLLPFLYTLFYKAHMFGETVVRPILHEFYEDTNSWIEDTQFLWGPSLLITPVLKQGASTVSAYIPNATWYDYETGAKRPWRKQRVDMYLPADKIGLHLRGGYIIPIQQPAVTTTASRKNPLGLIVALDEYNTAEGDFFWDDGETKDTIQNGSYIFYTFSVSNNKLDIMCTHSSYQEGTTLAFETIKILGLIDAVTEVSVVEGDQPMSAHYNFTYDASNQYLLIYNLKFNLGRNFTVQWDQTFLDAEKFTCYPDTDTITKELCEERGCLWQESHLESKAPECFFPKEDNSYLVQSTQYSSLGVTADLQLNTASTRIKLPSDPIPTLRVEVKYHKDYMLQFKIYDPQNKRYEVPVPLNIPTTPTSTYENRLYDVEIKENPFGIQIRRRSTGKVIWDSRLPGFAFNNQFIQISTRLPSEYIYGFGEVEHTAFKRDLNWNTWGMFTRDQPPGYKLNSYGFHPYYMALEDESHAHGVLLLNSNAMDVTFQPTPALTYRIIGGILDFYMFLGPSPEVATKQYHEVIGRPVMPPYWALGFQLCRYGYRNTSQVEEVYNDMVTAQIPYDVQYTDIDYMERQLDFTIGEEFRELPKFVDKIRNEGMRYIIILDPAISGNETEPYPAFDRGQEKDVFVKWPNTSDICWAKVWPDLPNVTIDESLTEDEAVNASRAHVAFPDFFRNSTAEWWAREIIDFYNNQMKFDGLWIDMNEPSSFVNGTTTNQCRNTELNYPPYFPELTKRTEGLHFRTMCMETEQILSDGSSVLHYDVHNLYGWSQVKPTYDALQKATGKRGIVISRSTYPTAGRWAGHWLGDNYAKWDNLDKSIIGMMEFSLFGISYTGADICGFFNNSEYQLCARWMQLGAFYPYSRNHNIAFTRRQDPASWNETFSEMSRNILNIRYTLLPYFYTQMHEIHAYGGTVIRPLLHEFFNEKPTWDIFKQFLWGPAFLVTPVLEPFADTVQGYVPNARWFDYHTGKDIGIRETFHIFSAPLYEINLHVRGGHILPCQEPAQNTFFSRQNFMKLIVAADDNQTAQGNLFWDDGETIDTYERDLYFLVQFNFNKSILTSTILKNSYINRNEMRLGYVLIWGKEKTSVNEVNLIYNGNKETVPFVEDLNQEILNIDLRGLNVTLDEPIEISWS

## C[C@H]1O[C@H](O[C@H]2[C@H](O)[C@@H](O)C(O)O[C@@H]2CO)[C@H](O)[C@@H](O)[C@@H]1N[C@H]1C=C(CO)[C@@H](O)[C@H](O)[C@H]1O (stereo partly drawn) [Formula IIB, O-{4,6-bisdesoxy-4-[1 S-(1,4,6/5)-4,5,6-trihydroxy-3-hydroxymethylcyclohex-2-en-1-ylamino]-α-D-glucopyranosyl}-(1→4)-D-glucopyranose]
Starch digestion; 1 g starch + 75 AIU oral, 5 Min.
  Blood Glucose (Mean ± SD): 102 ± 2.9 mg%
Starch digestion; 1 g starch + 75 AIU oral, 10 Min.
  Blood Glucose (Mean ± SD): 130 ± 6.9 mg%
Starch digestion; 1 g starch + 75 AIU oral, 15 Min.
  Blood Glucose (Mean ± SD): 128 ± 5.4 mg%
Starch digestion; 1 g starch + 75 AIU oral, 20 Min.
  Blood Glucose (Mean ± SD): 143 ± 11 mg%
Starch digestion; 1 g starch + 75 AIU oral, 30 Min.
  Blood Glucose (Mean ± SD): 125 ± 11 mg%
Starch digestion; 1 g starch + 75 AIU oral, 45 Min.
  Blood Glucose (Mean ± SD): 132 ± 18 mg%
Starch digestion; 1 g starch + 150 AIU oral, 5 Min.
  Blood Glucose (Mean ± SD): 98 ± 8.7 mg%
Starch digestion; 1 g starch + 150 AIU oral, 10 Min.
  Blood Glucose (Mean ± SD): 116 ± 9.0 mg%
Starch digestion; 1 g starch + 150 AIU oral, 15 Min.
  Blood Glucose (Mean ± SD): 128 ± 5.8 mg%
Starch digestion; 1 g starch + 150 AIU oral, 20 Min.
  Blood Glucose (Mean ± SD): 127 ± 4.8 mg%
Starch digestion; 1 g starch + 150 AIU oral, 30 Min.
  Blood Glucose (Mean ± SD): 115 ± 5.2 mg%
Starch digestion; 1 g starch + 150 AIU oral, 45 Min.
  Blood Glucose (Mean ± SD): 137 ± 5.2 mg%
Starch digestion; 1 g starch + 300 AIU oral, 5 Min.
  Blood Glucose (Mean ± SD): 87 ± 13 mg%
Starch digestion; 1 g starch + 300 AIU oral, 10 Min.
  Blood Glucose (Mean ± SD): 106 ± 1.8 mg%
Starch digestion; 1 g starch + 300 AIU oral, 15 Min.
  Blood Glucose (Mean ± SD): 110 ± 8.9 mg%
Starch digestion; 1 g starch + 300 AIU oral, 20 Min.
  Blood Glucose (Mean ± SD): 111 ± 2.1 mg%
Starch digestion; 1 g starch + 300 AIU oral, 30 Min.
  Blood Glucose (Mean ± SD): 108 ± 5.3 mg%
Starch digestion; 1 g starch + 300 AIU oral, 45 Min.
  Blood Glucose (Mean ± SD): 121 ± 7.2 mg%
Starch digestion; ED50, starch, fasting rat, Table VI
  ED50: 0.76 mg/kg
Starch digestion; compared with expectation from in vitro amylase inhibition
  in vivo inhibition of starch digestion, in words: much higher than would be expected
pancreas-α-amylase; in vitro, Table II
  α-Amylase Inhibition: 300,000 AIU/g
pancreas-α-amylase; in vitro, Table VI
  α-Amylase Inhibition In Vitro: 300 AIU/mg
pancreas-α-amylase; isolated product of the Examples
  amylase inhibiting activity of isolated product: 0.3 × 10^6 AIU/g
Saccharase [1]; in vitro, in words
  Saccharase inhibition relative to the derivative having two units: only half as much
Saccharase [1]; in vitro, Table II
  Saccharase Inhibition: 30,000 SIU/g
Saccharase [1]; in vitro, Table IV
  Saccharase Inhibition In Vitro: 30 SIU/mg
Saccharase [1]; product of the Examples, listed as one glucose unit
  saccharase inhibiting activity of isolated product: 30,000 SIU/g and 35,000 SIU/g
Saccharase [2]; 2.5 g sucrose + 50 SIU oral, 15 Min.
  Blood Glucose (Mean ± SD): 105 ± 11 mg%
Saccharase [2]; 2.5 g sucrose + 50 SIU oral, 30 Min.
  Blood Glucose (Mean ± SD): 123 ± 5.2 mg%
Saccharase [2]; 2.5 g sucrose + 50 SIU oral, 45 Min.
  Blood Glucose (Mean ± SD): 128 ± 11 mg%
Saccharase [2]; 2.5 g sucrose + 100 SIU oral, 15 Min.
  Blood Glucose (Mean ± SD): 89 ± 6.5 mg%
Saccharase [2]; 2.5 g sucrose + 100 SIU oral, 30 Min.
  Blood Glucose (Mean ± SD): 111 ± 4.1 mg%
Saccharase [2]; 2.5 g sucrose + 100 SIU oral, 45 Min.
  Blood Glucose (Mean ± SD): 116 ± 3.9 mg%
Saccharase [2]; 2.5 g sucrose + 200 SIU oral, 15 Min.
  Blood Glucose (Mean ± SD): 72 ± 4.6 mg%
Saccharase [2]; 2.5 g sucrose + 200 SIU oral, 30 Min.
  Blood Glucose (Mean ± SD): 95 ± 9.1 mg%
Saccharase [2]; 2.5 g sucrose + 200 SIU oral, 45 Min.
  Blood Glucose (Mean ± SD): 104 ± 9.6 mg%
Saccharase [2]; read-out: Saccharase Inhibition (ED50 mg/kg), ED50, sucrose, fasting rat, Table IV, read-out: Saccharase Inhibition In Vitro (ED50 mg/kg)
  ED50: 3 mg/kg
